Source: article PMC9143527, “A Novel Strategy for Regulating mRNA’s Degradation via Interfering the AUF1’s Binding to mRNA” (Molecules, 2022)

Legend:
[1] = target: T1, p37AUF1 (AUF1, hnRNP D) (Homo sapiens, UniProt Q14103); assay: REMSA, inhibition of AUF1-RNA complex formation; type: binding; details: 750 nM AUF1, 250 nM FAM-labelled TNF ARE RNA; 10 mM Tris-HCl pH 8.0, 50 mM KCl, 2 mM DTT, 0.5 mM EDTA; on ice
T1 construct: gene HNRNPD; recombinant purified p37 isoform; expression details and tags only in supplement
T1 sequence (Q14103 2-287 isoform Q14103-4): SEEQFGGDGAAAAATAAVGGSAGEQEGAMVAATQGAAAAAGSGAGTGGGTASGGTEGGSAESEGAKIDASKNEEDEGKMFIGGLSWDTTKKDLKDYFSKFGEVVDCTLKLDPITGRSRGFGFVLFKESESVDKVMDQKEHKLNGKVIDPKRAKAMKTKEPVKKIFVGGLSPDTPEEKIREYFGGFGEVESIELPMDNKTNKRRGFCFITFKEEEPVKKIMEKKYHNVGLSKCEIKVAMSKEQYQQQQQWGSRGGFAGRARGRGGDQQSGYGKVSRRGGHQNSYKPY

[2] = target: T2, AUF1 (endogenous, CETSA) (Homo sapiens, UniProt Q14103); assay: CETSA, Western blot; type: cell-based; details: HepG2, SK-MEL-2, HCT-116 cells; 1 h treatment at 1, 3.5 or 6 uM
T2 construct: gene HNRNPD; endogenous AUF1 in intact cells, detected by Western blot
T2 sequence (Q14103 2-355): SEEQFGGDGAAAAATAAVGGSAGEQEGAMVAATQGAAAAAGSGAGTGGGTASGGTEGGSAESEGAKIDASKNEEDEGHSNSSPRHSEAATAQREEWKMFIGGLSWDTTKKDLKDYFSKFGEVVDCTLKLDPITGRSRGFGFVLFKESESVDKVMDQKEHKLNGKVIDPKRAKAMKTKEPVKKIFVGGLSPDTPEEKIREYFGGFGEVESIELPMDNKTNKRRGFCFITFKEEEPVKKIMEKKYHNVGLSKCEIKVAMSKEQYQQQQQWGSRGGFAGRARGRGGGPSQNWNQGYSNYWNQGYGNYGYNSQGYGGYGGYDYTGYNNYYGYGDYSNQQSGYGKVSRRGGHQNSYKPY

[3] = target: T1, p37AUF1 (AUF1, hnRNP D); assay: SPR (Biacore 8K, CM5 chip, amine coupling); type: binding; details: 20 mM PB pH 7.4 at immobilization; 5% DMSO; compound at 0-80 uM

How did the “REMSA, inhibition of AUF1-RNA complex formation” value [1] turn out when Nc1nc(Nc2ccc(S(N)(=O)=O)cc2)nn1C(=O)c1c(F)cccc1F [JNJ-7706621] was run?
The value was “After adding increasing JNJ-7706621, the bands representing RNA-AUF1 complex weakened”.

What about the Tm [2] of the same molecule?
The Tm was “The melting temperature fitted from the curve in each cell decreased when treated with JNJ-7706621”.

And the “SPR (Biacore 8K, CM5 chip, amine coupling)” value [3]?
The value was “only one compound, JNJ-7706621, showed a typical binding curve shape”.
